Reference: ChEMBL document CHEMBL4387748, “Chalcone derivatives bearing chromen or benzo[f]chromen moieties: Design, synthesis, and evaluations of anti-inflammatory, analgesic, selective COX-2 inhibitory activities” (Bioorg Med Chem Lett, 2019)

Key:
Mus musculus [1] = experiment: Analgesic activity in mouse at 30 mg/kg, ip measured after 60 mins by hot plate technique relative to control; assay type: functional; conditions: 1 h
[2] = molecular target: Prostaglandin G/H synthase 1 (Ovis aries) (UniProt P05979)
[3] = Selectivity index, ratio of IC50 for COX1 (unknown origin) to IC50 for COX2 (unknown origin); conditions: Homo sapiens
[4] = molecular target: Prostaglandin G/H synthase 2 (Ovis aries) (UniProt P79208)
Mus musculus [5] = experiment: Anti-inflammatory activity in mouse assessed as inhibition of xylene-induced ear edema at 30 mg/kg, ip dosed prior to xylene challenge and measured 1 hr post xylene injection relative to control; assay type: functional

Sequence of Prostaglandin G/H synthase 2 (Ovis aries) (P79208 whole entry, looked up): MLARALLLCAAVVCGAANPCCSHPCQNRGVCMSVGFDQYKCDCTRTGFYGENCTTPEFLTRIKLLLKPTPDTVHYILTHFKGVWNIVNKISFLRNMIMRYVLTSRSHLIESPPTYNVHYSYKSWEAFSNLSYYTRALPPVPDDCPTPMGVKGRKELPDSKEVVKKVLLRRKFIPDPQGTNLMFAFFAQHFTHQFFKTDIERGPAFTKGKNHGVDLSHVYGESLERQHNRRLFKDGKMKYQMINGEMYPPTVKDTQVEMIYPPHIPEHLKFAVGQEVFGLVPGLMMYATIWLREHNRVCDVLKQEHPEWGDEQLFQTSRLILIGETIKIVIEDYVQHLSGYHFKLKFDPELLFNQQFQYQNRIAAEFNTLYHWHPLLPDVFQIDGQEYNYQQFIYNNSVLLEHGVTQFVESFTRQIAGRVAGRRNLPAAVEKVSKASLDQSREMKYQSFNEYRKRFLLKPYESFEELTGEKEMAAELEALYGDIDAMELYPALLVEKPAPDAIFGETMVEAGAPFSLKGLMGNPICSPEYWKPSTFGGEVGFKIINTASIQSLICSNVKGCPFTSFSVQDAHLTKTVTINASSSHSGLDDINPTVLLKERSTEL

Structure (SMILES) | inhibition in vivo at 30 mg/kg (Mus musculus [1]) [%] | IC50 [2] [µM] | Ratio IC50 [3] | IC50 [4] [µM] | inhibition in vivo at 30 mg/kg (Mus musculus [5]) [%]
O=C(/C=C/C1=Cc2ccccc2OC1)c1ccc(Br)cc1 | 66.7 to 100 | 7.21 | 17.2 | 0.42 | 66
CN(C)c1ccc(C(=O)/C=C/C2=Cc3ccccc3OC2)cc1 | 66.7 to 100 | – | – | – | 57.3
O=C(/C=C/C1=Cc2c(ccc3ccccc23)OC1)c1ccccc1Br | 96.2 to 100 | – | – | – | 79.8
O=C(/C=C/C1=Cc2c(ccc3ccccc23)OC1)c1ccc([N+](=O)[O-])cc1 | 100 | 7.77 | 31.1 | 0.25 | 76.3
O=C(/C=C/C1=Cc2c(ccc3ccccc23)OC1)c1ccc(Br)cc1 | 96.2 to 100 | – | – | – | 57.5
O=C(/C=C/C1=Cc2ccccc2OC1)c1ccccc1Br | 66.7 to 100 | – | – | – | 56.6
Cc1ccc(C(=O)/C=C/C2=Cc3c(ccc4ccccc34)OC2)cc1 | 96.2 to 100 | – | – | – | 74.6
O=C(/C=C/C1=Cc2ccccc2OC1)c1cccc(Cl)c1 | 66.7 to 100 | – | – | – | 51
Nc1ccc(C(=O)/C=C/C2=Cc3c(ccc4ccccc34)OC2)cc1 | 96.2 to 100 | – | – | – | 67.1
O=C(/C=C/C1=Cc2c(ccc3ccccc23)OC1)c1ccc(C(F)(F)F)cc1 | 100 | 8.63 | 26.1 | 0.33 | 83.6
O=C(/C=C/C1=Cc2c(ccc3ccccc23)OC1)c1ccc(Cl)cc1Cl | 100 | 7.92 | 27.3 | 0.29 | 84.1
O=C(/C=C/C1=Cc2c(ccc3ccccc23)OC1)c1ccc(F)cc1 | 96.2 to 100 | – | – | – | 57.3
Cc1ccc(C(=O)/C=C/C2=Cc3ccccc3OC2)cc1C | 66.7 to 100 | – | – | – | 48.1
O=C(/C=C/C1=Cc2ccccc2OC1)c1ccc(Cl)cc1 | 66.7 to 100 | – | – | – | 56.1
O=C(/C=C/C1=Cc2ccccc2OC1)c1cccc(F)c1 | 66.7 to 100 | – | – | – | 52.4
COc1ccc2c(c1)c(CC(=O)O)c(C)n2C(=O)c1ccc(Cl)cc1 [INDOMETHACIN] | – | – | – | – | 64.3 to 82.2
O=C(/C=C/C1=Cc2c(ccc3ccccc23)OC1)c1cccc(Cl)c1 | 96.2 to 100 | – | – | – | 75
O=C(/C=C/C1=Cc2c(ccc3ccccc23)OC1)c1ccc(Cl)cc1 | 96.2 to 100 | – | – | – | 67.1
O=C(/C=C/C1=Cc2ccccc2OC1)c1ccccc1Cl | 66.7 to 100 | – | – | – | 52.3
COc1ccc(C(=O)/C=C/C2=Cc3ccccc3OC2)cc1 | 66.7 to 100 | 9.2 | 20 | 0.46 | 66.2

Structure (SMILES) | inhibition in vivo at 30 mg/kg (Mus musculus [1]) [%] | IC50 [2] [µM] | Ratio IC50 [3] | IC50 [4] [µM] | inhibition in vivo at 30 mg/kg (Mus musculus [5]) [%]
Nc1ccc(C(=O)/C=C/C2=Cc3ccccc3OC2)cc1 | 66.7 to 100 | – | – | – | 52.6
O=C(/C=C/C1=Cc2c(ccc3ccccc23)OC1)c1ccccc1Cl | 96.2 to 100 | – | – | – | 66.1
COc1ccc(C(=O)/C=C/C2=Cc3ccccc3OC2)cc1OC | 66.7 to 100 | 7.08 | 15.4 | 0.46 | 67.6
COc1ccc(C(=O)/C=C/C2=Cc3c(ccc4ccccc34)OC2)cc1 | 96.2 to 100 | 9.04 | 23.8 | 0.38 | 79.3
O=C(/C=C/C1=Cc2ccccc2OC1)c1cccc(Br)c1 | 66.7 to 100 | – | – | – | 51.7
CN(C)c1ccc(C(=O)/C=C/C2=Cc3c(ccc4ccccc34)OC2)cc1 | 96.2 to 100 | – | – | – | 67.2
O=C(/C=C/C1=Cc2ccccc2OC1)c1ccc(C(F)(F)F)cc1 | 100 | 7.75 | 9.34 | 0.83 | 75.5
O=C(/C=C/C1=Cc2ccccc2OC1)c1ccc(F)cc1 | 66.7 to 100 | 8.32 | 22.5 | 0.37 | 65.6
O=C(/C=C/C1=Cc2c(ccc3ccccc23)OC1)c1cccc(F)c1 | 96.2 to 100 | – | – | – | 70.1
Cc1ccc(C(=O)/C=C/C2=Cc3c(ccc4ccccc34)OC2)cc1C | 96.2 to 100 | – | – | – | 54.2
O=C(/C=C/C1=Cc2ccccc2OC1)c1ccccc1F | 66.7 to 100 | – | – | – | 64.4
O=C(/C=C/C1=Cc2ccccc2OC1)c1ccc([N+](=O)[O-])cc1 | 85.1 | – | – | – | 50.8
CCc1ccc(C(=O)/C=C/C2=Cc3c(ccc4ccccc34)OC2)cc1 | 96.2 to 100 | 8.89 | 20.7 | 0.43 | 83.1
Cc1ccc(C(=O)/C=C/C2=Cc3ccccc3OC2)cc1 | 66.7 to 100 | – | – | – | 53.1
O=C(/C=C/C1=Cc2c(ccc3ccccc23)OC1)c1ccccc1F | 96.2 to 100 | 6.41 | 20.7 | 0.31 | 73.3
O=C(/C=C/C1=Cc2ccccc2OC1)c1ccc(Cl)cc1Cl | 66.7 to 100 | – | – | – | 53.3
COc1ccc(C(=O)/C=C/C2=Cc3c(ccc4ccccc34)OC2)cc1OC | 96.2 to 100 | – | – | – | 55.1
CCc1ccc(C(=O)/C=C/C2=Cc3ccccc3OC2)cc1 | 66.7 to 100 | 6.22 | 15.9 | 0.39 | 68.1
O=C(/C=C/C1=Cc2c(ccc3ccccc23)OC1)c1cccc(Br)c1 | 96.2 to 100 | – | – | – | 67.9
